Experimental data: patent US20110136801A1, “Novel Compounds” (Dainippon Sumitomo Pharma Co. Ltd., priority 2009, published 2011)

Target: T1, human TLR7 (Homo sapiens, UniProt Q9NYK1)
T1 construct: expressed in transfected cells; host or cells: HEK293 cell line stably expressing the pNiFty2-SEAP reporter plasmid; TLR7 in pUNO vector, blasticidin selection
T1 sequence (Q9NYK1 27-1049): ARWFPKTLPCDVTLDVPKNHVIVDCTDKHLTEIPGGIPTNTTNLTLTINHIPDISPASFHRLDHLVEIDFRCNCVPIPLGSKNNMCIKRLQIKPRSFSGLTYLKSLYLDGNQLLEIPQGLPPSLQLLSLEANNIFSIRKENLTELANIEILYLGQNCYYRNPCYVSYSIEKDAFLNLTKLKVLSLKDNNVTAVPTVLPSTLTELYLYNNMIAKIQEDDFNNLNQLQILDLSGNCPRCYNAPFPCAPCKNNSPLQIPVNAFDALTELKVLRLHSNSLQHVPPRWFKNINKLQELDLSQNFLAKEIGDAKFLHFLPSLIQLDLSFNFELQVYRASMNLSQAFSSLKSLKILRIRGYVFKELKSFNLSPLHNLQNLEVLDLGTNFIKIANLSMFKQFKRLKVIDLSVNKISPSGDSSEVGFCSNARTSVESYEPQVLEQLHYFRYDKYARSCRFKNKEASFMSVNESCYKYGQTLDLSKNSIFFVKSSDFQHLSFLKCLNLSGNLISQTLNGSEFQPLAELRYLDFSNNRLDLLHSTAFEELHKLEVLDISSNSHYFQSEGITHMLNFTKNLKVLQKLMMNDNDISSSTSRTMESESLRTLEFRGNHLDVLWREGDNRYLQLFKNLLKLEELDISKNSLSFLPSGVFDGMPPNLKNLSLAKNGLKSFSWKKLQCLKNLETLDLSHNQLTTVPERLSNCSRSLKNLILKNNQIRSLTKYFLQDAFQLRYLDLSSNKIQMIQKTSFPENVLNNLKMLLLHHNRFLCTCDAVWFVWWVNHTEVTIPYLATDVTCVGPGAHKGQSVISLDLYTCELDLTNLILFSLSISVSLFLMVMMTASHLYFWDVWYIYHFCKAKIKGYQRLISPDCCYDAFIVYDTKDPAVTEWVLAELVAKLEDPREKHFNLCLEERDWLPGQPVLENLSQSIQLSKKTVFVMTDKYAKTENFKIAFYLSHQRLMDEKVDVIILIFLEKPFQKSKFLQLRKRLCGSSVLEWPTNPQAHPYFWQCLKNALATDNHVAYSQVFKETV
Assay: Human TLR7 Assay (SEAP reporter in HEK293 cells);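 also: Read-out is secreted alkaline phosphatase made under an NFkB/ELAM-1 composite promoter, reporting TLR7-triggered NFkB activation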
Type: cell-based
Conditions: HEK293 cell line expressing human TLR7 and pNiFty2-SEAP reporter, overnight incubation at 37° C., 0.1% DMSO; read-out: hTLR7 EC50
Description: The most common variant sequence of human TLR7 (represented by the EMBL sequence AF240467) was cloned into the mammalian cell expression vector pUNO and transfected into a HEK293 cell line already stably expressing the pNiFty2-SEAP reporter plasmid; integration of the reporter gene was maintained by selection with the antibiotic zeocin. Transfectants with stable TLR7 expression were selected using the antibiotic blasticidin. In this reporter cell-line, expression of secreted alkaline phosphatase (SEAP) is controlled by an NFkB/ELAM-1 composite promoter comprising five NFkB sites combined with the proximal ELAM-1 promoter. TLR signaling leads to the translocation of NFkB and activation of the promoter results in expression of the SEAP gene. TLR7-specific activation was assessed by determining the level of SEAP produced following overnight incubation of the cells at 37° C. with the standard compound in the presence of 0.1% (v/v) dimethylsulfoxide (DMSO). Concentration dependent induction of SEAP production by compounds was expressed as the concentration of compound which produced half of the maximal level of SEAP induction for that compound (EC50).

Row | Structure (SMILES) | EC50 [nM]
1 | CCOC(=O)COc1cccc(CN(CCCn2c(CCOC)nc3c(N)nc4ccccc4c32)C(=O)CN(C)CC)c1F [Example 97, Ethyl 2-{3-[(N-{3-[4-amino-2-(2-methoxyethyl)-1H-imidazo[4,5-c]quinolin-1-yl]propyl}-2-{ethyl(methyl)amino}acetamido)methyl]-2-fluorophenoxy}acetate] | 256
2 | COCCc1nc2c(N)nc3ccccc3c2n1CCCN(Cc1cccc(OCC(=O)OC)c1)C(=O)CN1CCCCC1 [Example 19, Methyl (3-{[[3-(4-amino-2-(2-methoxyethyl)-1H-imidazo[4,5-c]quinolin-1-yl)propyl](piperidin-1-ylacetyl)amino]methyl}phenoxy)acetate] | 178
3 | CCN(CC)CC(=O)N(CCCn1c(CCOC)nc2c(N)nc3ccccc3c21)Cc1ccc(F)c(OCC(=O)OC(C)C)c1 [Example 118, Isopropyl 2-{5-[(N-{3-[4-amino-2-(2-methoxyethyl)-1H-imidazo[4,5-c]quinolin-1-yl]propyl}-2-{diethylamino}acetamido)methyl]-2-fluorophenoxy}acetate] | 77.4
4 | CCN(C)CC(=O)N(CCCn1c(CCOC)nc2c(N)nc3ccccc3c21)Cc1cccc(OCC(=O)OC(C)C)c1 [Example 114, Isopropyl 2-{3-[(N-{3-[4-amino-2-(2-methoxyethyl)-1H-imidazo[4,5-c]quinolin-1-yl]propyl}-2-{ethyl(methyl)amino}acetamido]methyl)phenoxy}acetate] | 67.8
5 | CCN(CC)CC(=O)N(CCCn1c(CCOC)nc2c(N)nc3ccccc3c21)Cc1cccc(OCC(=O)OCCOC)c1 [Example 29, 2-Methoxyethyl 2-{3-[(N-{3-[4-amino-2-(2-methoxyethyl)-1H-imidazo[4,5-c]quinolin-1-yl]propyl}-2-(diethylamino)acetamido)methyl]phenoxy}acetate] | 174
6 | COCCc1nc2c(N)nc3ccccc3c2n1CCCN(Cc1cccc(OCC(=O)OC(C)C)c1F)C(=O)CN(C)C [Example 96, Isopropyl 2-{3-[(N-{3-[4-amino-2-(2-methoxyethyl)-1H-imidazo[4,5-c]quinolin-1-yl]propyl}-2-{dimethylamino}acetamido)methyl]-2-fluorophenoxy}acetate] | 304
7 | CCOC(=O)COc1cccc(CN(CCn2c(CCOC)nc3c(N)nc4ccccc4c32)C(=O)CN(CC)CC)c1 [Example 101, Ethyl 2-{3-[(N-{2-[4-amino-2-(2-methoxyethyl)-1H-imidazo[4,5-c]quinolin-1-yl]ethyl}-2-{diethylamino}acetamido)methyl]phenoxy}acetate] | > 10000
8 | COCCc1nc2c(N)nc3ccccc3c2n1CCCNC(=O)N(CCCN(C)C)Cc1ccc(OCC(=O)OC)cc1 [Example 22, Methyl [4-({[({3-[4-amino-2-(2-methoxyethyl)-1H-imidazo[4,5-c]quinolin-1-yl]propyl}amino)carbonyl][3-(dimethylamino)propyl]amino}methyl)phenoxy]acetate] | 188
9 | CCN(CC)CC(=O)N(CCCn1c(CCOC)nc2c(N)nc3ccccc3c21)Cc1ccc(F)c(OCC(=O)OC)c1 [Example 120, Methyl 2-{5-[(N-{3-[4-amino-2-(2-methoxyethyl)-1H-imidazo[4,5-c]quinolin-1-yl]propyl}-2-{diethylamino}acetamido)methyl]-2-fluorophenoxy}acetate] | 278
10 | CCOC(=O)COc1cccc(CN(CCCn2c(CCOC)nc3c(N)nc4ccccc4c32)C(=O)CN(C)C)c1 [Example 33, Ethyl 2-{3-[(N-{3-[4-amino-2-(2-methoxyethyl)-1H-imidazo[4,5-c]quinolin-1-yl]propyl}-2-(dimethylamino)acetamido)methyl]phenoxy}acetate] | 177
11 | CCN(CC)CC(=O)N(CCCn1c(CCOC)nc2c(N)nc3ccccc3c21)Cc1ccc(C)c(OCC(=O)OC(C)C)c1 [Example 67, Isopropyl 2-{5-[(N-{3-[4-amino-2-(2-methoxyethyl)-1H-imidazo[4,5-c]quinolin-1-yl]propyl}-2-{diethylamino}acetamido)methyl]-2-methylphenoxy}acetate] | 45.8
12 | CCN(CC)CC(=O)N(CCCn1c(CCOC)nc2c(N)nc3ccccc3c21)Cc1cccc(OCC(=O)OC(C)C)c1OC [Example 90, Isopropyl 2-{3-[(N-{3-[4-amino-2-(2-methoxyethyl)-1H-imidazo[4,5-c]quinolin-1-yl]propyl}-2-{diethylamino}acetamido)methyl]-2-methoxyphenoxy}acetate] | 81
13 | CCOC(=O)C(C)Oc1cccc(CN(CCCn2c(CCOC)nc3c(N)nc4ccccc4c32)C(=O)CN(CC)CC)c1 (centres unmarked) [Example 52, Ethyl 2-{3-[(N-{3-[4-amino-2-(2-methoxyethyl)-1H-imidazo[4,5-c]quinolin-1-yl]propyl}-2-{diethylamino}acetamido)methyl]phenoxy}propanoate] | 24.2
14 | CCCCc1nc2c(N)nc3ccccc3c2n1CCCN(Cc1cccc(OCC(=O)OC)c1)C(=O)CN1CCN(CCOC)CC1 [Example 12, Methyl {3-[([3-(4-amino-2-butyl-1H-imidazo[4,5-c]quinolin-1-yl)propyl]{[4-(2-methoxyethyl)piperazin-1-yl]acetyl}amino)methyl]phenoxy}acetate] | 432
15 | CCN(CC)CC(=O)N(CCCn1c(CCOC)nc2c(N)nc3ccccc3c21)Cc1cccc(OCC(=O)OCC(C)C)c1 [Example 28, Isobutyl 2-{3-[(N-{3-[4-amino-2-(2-methoxyethyl)-1H-imidazo[4,5-c]quinolin-1-yl]propyl}-2-(diethylamino)acetamido)methyl]phenoxy}acetate] | 49.9

More lines, now with the values ahead:

Row | EC50 [nM] | Structure (SMILES)
16 | 86.1 | CCCCc1nc2c(N)nc3ccccc3c2n1CCCN(Cc1cccc(OC(C)(C)C(=O)OCC)c1)C(=O)CN(CC)CC [Example 153, Ethyl 2-[3-({N-[3-(4-amino-2-butyl-1H-imidazo[4,5-c]quinolin-1-yl)propyl]-2-(diethylamino)acetamido}methyl)phenoxy]-2-methylpropanoate]
17 | 79.2 | COCCc1nc2c(N)nc3ccccc3c2n1CCCCNC(=O)N(CCN1CCCCC1)Cc1ccc(F)c(OCC(=O)OC)c1 [Example 144, Methyl 2-{5-[(3-{4-[4-amino-2-(2-methoxyethyl)-1H-imidazo[4,5-c]quinolin-1-yl]butyl}-1-{2-(piperidin-1-yl)ethyl}ureido)methyl]-2-fluorophenoxy}acetate]
18 | 139 | CCCCc1nc2c(N)nc3ccccc3c2n1CCCN(Cc1cccc(OCC(=O)OC(C)C)c1)C(=O)CN(C)C [Example 159, Isopropyl 2-[3-({N-[3-(4-amino-2-butyl-1H-imidazo[4,5-c]quinolin-1-yl)propyl]-2-(dimethylamino)acetamido}methyl)phenoxy]acetate]
19 | 40.3 | CCOC(=O)COc1cc(F)cc(CN(CCCn2c(CCOC)nc3c(N)nc4ccccc4c32)C(=O)CN(CC)CC)c1 [Example 124, Ethyl 2-{3-[(N-{3-[4-amino-2-(2-methoxyethyl)-1H-imidazo[4,5-c]quinolin-1-yl]propyl}-2-{diethylamino}acetamido)methyl]-5-fluorophenoxy}acetate]
20 | 16.6 | COCCc1nc2c(N)nc3ccccc3c2n1CCCCN(CCN(C)C)Cc1cccc(OC(C)(C)C(=O)OC)c1 [Example 135, Methyl 2-{3-[({4-[4-amino-2-(2-methoxyethyl)-1H-imidazo[4,5-c]quinolin-1-yl]butyl}{2-(dimethylamino)ethyl}amino)methyl]phenoxy}-2-methylpropanoate]
21 | 166 | CCCCc1nc2c(N)nc3ccccc3c2n1CCCN(Cc1cccc(OC(C)(C)C(=O)OCC)c1)C(=O)CN1CCCC1 [Example 168, Ethyl 2-[3-({N-[3-(4-amino-2-butyl-1H-imidazo[4,5-c]quinolin-1-yl)propyl]-2-(pyrrolidin-1-yl)acetamido}methyl)phenoxy]-2-methylpropanoate]
22 | 475 | CCOCc1nc2c(N)nc3ccccc3c2n1CCCN(Cc1cccc(OCC(=O)OC(C)C)c1F)C(=O)CN(CC)CC [Example 166, Isopropyl 2-{3-[(N-{3-[4-amino-2-(ethoxymethyl)-1H-imidazo[4,5-c]quinolin-1-yl]propyl}-2-{diethylamino}acetamido)methyl]-2-fluorophenoxy}acetate]
23 | 155 | CCCCc1nc2c(N)nc3ccccc3c2n1CCCN(Cc1cccc(OC(C)(C)C(=O)OC)c1)C(=O)CN1CCCC1 [Example 169, Methyl 2-[3-({N-[3-(4-amino-2-butyl-1H-imidazo[4,5-c]quinolin-1-yl)propyl]-2-(pyrrolidin-1-yl)acetamido}methyl)phenoxy]-2-methylpropanoate]
